US7691965B2, “Helical synthetic peptides that stimulate cellular cholesterol efflux” (The Regents of the University of California, priority 2002, dated 2010)
Where a SMILES comes first, the peptide text is derived from it.

Assays:
ABCA1 [1] = molecular target: T1, ABCA1 (Mus musculus, UniProt P41233); experiment: ABCA1 stabilization: immunoblot of ABCA1 protein in J774 macrophage membranes after cAMP withdrawal; format: cell-based; parameters: J774 macrophages were used to assess relative ABCA1 protein levels in the presence and absence of synthetic peptides; endogenous in cells; host or cells: J774 macrophages treated with a cAMP analog (CPT-cAMP or 8-bromo-cAMP); conditions: 20 μg/ml peptide, 6 h without cAMP, J774 macrophages
T1 sequence (P41233 whole entry): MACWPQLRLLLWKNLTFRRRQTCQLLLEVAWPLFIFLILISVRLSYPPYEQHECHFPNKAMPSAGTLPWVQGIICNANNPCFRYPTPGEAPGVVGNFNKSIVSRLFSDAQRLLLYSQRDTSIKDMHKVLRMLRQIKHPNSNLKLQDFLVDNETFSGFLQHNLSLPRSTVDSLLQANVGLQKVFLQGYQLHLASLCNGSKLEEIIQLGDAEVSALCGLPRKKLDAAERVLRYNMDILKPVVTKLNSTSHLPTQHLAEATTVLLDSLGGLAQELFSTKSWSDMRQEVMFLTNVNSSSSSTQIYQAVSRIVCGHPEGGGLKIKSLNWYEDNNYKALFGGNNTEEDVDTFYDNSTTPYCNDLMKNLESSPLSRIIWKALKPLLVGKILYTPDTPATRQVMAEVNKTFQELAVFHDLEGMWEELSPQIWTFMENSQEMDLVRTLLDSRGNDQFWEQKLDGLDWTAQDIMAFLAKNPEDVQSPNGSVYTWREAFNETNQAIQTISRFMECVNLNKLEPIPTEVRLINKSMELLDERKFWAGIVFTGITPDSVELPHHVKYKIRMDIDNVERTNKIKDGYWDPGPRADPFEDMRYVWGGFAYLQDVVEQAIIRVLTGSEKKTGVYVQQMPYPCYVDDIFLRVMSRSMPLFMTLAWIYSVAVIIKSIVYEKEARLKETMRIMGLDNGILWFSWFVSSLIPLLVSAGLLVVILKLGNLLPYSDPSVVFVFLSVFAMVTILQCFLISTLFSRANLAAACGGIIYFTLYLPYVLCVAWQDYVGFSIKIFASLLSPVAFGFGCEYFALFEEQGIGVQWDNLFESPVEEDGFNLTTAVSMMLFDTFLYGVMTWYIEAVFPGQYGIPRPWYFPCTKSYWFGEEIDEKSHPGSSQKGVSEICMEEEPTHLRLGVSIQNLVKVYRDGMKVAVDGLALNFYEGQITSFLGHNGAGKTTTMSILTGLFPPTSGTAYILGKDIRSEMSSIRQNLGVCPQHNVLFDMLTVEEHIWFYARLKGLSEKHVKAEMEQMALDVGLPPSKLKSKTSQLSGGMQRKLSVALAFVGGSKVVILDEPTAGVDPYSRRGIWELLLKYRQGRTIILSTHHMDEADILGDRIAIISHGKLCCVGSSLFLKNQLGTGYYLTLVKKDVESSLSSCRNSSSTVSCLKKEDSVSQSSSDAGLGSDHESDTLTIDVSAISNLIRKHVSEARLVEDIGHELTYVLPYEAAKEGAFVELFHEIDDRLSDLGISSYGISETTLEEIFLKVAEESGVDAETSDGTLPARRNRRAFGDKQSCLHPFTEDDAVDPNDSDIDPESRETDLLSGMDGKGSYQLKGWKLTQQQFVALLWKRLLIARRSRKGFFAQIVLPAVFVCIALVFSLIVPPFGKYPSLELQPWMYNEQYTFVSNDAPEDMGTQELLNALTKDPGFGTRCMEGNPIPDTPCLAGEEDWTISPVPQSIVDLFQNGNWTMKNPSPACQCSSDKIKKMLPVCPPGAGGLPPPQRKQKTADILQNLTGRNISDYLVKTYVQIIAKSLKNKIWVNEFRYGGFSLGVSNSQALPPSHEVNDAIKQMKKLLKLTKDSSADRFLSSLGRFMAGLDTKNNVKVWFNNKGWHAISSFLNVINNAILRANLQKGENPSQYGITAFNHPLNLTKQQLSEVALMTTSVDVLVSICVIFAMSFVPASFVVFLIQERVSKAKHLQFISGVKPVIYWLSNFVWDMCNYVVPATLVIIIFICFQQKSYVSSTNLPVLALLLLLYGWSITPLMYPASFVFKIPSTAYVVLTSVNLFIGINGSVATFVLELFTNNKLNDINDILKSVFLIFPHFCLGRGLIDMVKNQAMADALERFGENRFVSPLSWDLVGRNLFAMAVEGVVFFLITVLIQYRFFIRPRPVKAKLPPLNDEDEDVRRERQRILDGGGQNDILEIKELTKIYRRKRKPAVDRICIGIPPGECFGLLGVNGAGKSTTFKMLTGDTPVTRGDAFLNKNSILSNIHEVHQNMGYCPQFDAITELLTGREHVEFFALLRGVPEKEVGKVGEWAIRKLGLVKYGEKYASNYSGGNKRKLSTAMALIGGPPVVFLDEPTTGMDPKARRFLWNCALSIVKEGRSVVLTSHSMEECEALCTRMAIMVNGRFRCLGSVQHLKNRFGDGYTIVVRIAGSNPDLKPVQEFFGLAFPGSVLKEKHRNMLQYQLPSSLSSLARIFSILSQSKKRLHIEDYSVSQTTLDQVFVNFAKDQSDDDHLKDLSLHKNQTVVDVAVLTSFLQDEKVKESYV
Protocol: J774 macrophages were incubated (18 h) with 0.5 mM 8-bromo-cAMP in medium containing 0.1% bovine serum albumin to up-regulate ABCA1 protein expression. Washed cells were subsequently exposed for 6 h to bovine serum albumin medium with (+) or without (−) 8-bromo-cAMP and the indicated synthetic peptides (20 μg/ml). None refers to no peptides. The cellular membrane content of ABCA1 protein was measured by immunoblot analysis.
ABCA1 Stabilization—J774 macrophages were used to assess relative ABCA1 protein levels in the presence and absence of synthetic peptides. Cells were grown in 10% fetal bovine serum, extensively rinsed, and incubated (18 h) with Dulbecco's modified Eagle's medium containing 0.1% bovine serum albumin plus the cAMP analog 8-bromo-cAMP. Cells were next exposed to synthetic peptides or serum-free medium in the absence of the cAMP stimulus to evaluate whether ABCA1 protein was stabilized or degraded. Relative levels of ABCA1 protein were assessed by immunoblot analysis of cell membranes (Oram, J. F. et al., J. Biol. Chem., 278:52379-52385 (2003)). ABCA1 was visualized using an enhanced chemiluminescence detection assay.
To assess ABCA1 stabilization, J774 macrophages were treated with a cAMP analog to up-regulate ABCA1 protein expression and then incubated for 6 h without cAMP. In the absence of inducer, ABCA1 protein is rapidly degraded in these cells (FIG. 9). […] Thus, it appears that the helical combinations that stimulate cholesterol efflux also stabilize the ABCA1 transporter.

ABCA1 [2] = molecular target: T1, ABCA1; experiment: Cellular cholesterol efflux from [3H]cholesterol-labeled J774 macrophages with and without cAMP analog; format: cell-based; parameters: endogenous in cells; host or cells: J774 macrophages treated with a cAMP analog (CPT-cAMP or 8-bromo-cAMP); conditions: for ABCA1-dependent cholesterol efflux (result in words): lipid-free acceptor, J774 macrophages with vs without cAMP analog
Source text: Suitable cholesterol efflux assays are described in, e.g., Bielicki, J. K and Oda, M. N., Biochemistry, 41:2089-2096 (2002); Jia, Z. et al., Biochem. Biophys. Res. Common., 297:206-213 (2002). In some embodiments, a polypeptide known to mediate cholesterol efflux (e.g., helix 9/10 of Apo A-I) is used to screen for additional mediators of cholesterol efflux in a cell based assay. For example, cell lines in which cholesterol efflux can be enhanced using a cAMP analog that up-regulates ABCA1 protein expression (e.g., J774 macrophages) can conveniently be used to assess the ability of an Apo A-I, Apo A-II, Apo A-IV, Apo E, Apo C-I, Apo C-II, Apo C-III, or Serum Amyloid A peptide to mediate cholesterol efflux. The cells are incubated with labeled cholesterol (e.g., [^3H]cholesterol) under conditions appropriate for cholesterol uptake by the cells. cAMP or cAMP analogs (e.g., CPT-cAMP) is incubated with the cells for a suitable time before the initiation of cellular cholesterol efflux, i.e., prior to contacting the cells with helix 9/10 of Apo A-I or the test compound. Measurement of labeled cholesterol appearing in the medium is used to determine the cholesterol efflux mediating activity of the test compound.
Cellular Cholesterol Efflux Protocol—J774 macrophages were used to assess the cholesterol efflux properties of synthetic amphipathic α-helical peptides (Bielicki, J. K and Oda, M. N., Biochemistry, 41:2089-2096 (2002); Jia, Z. et al., Biochem. Biophys. Res. Common., 297:206-213 (2002)). This cell line was chosen because cholesterol efflux can be enhanced using a cAMP analog that up-regulates ABCA1 protein expression. The cells were seeded onto 24-well culture plates and labeled for 48 h with [^3H]cholesterol in RPMI 1640 supplemented with 1% fetal bovine serum. The cAMP analog CPT-cAMP was added (0.3 mM, final concentration) to the cells at least 12 h before the initiation of cellular cholesterol efflux. Synthetic peptides in lipid-free form were added to cells in serum-free RPMI. The lipid-free form of full-length recombinant apoA-I was used as a positive control to define apparent ABCA1-dependent cholesterol efflux in the presence and absence of cAMP stimulation. Efflux results were expressed as a percentage of the initial cellular [^3H] appearing in the medium as a function of time subtracting the background efflux obtained using serum-free medium alone.

[3] = Relative lipid binding affinity by surface balance technique (monolayer exclusion pressure); format: physicochemical; conditions: for Monolayer exclusion pressure: surface balance technique
Source text: Relative Lipid Binding Affinity, Hydrophobicity, and Amphiphilicity of Synthetic Peptides—In some experiments, the relative lipid binding affinity of unique peptides was quantified using a surface balance technique (Gillotte, K L. et al., J. Biol. Chem., 274:2021-2028 (1999)). For routine analyses, a turbid solution of dimyristoylphosphatidylcholine (DMPC) was used to assess the relative capacity of synthetic peptides to solubilize phospholipid as described (Palgunachari, M. N. et al., Arterioscler. Thromb. Vasc. Biol., 16:328-338 (1996); McLean, L. R. and Hagaman, K. A., Biochim. Biophys. Acta, 1167:289-295 (1993)). The DMPC was used at a final concentration of 0.08 mg/ml in 10 mM Tris-saline (pH 7.4). The final weight ratio of peptides relative to DMPC was 1:1. The absorbance (400 nm) of samples was monitored continuously over a period of 30 min at 25° C. Hydrophobicity of helical peptides was calculated using the consensus scale (Eisenberg D., Annu. Rev. Biochem., 53:593-623 (1984)). The hydrophobic moment (kcal/mol) of synthetic peptides, which is a measure of helix amphiphilicity, was calculated as described by Eisenberg et al. (Eisenberg, D. et al., Nature, 299:371-374 (1982)).

ABCA1 [4] = molecular target: T1, ABCA1; experiment: ABCA1 stabilization: immunoblot of ABCA1 protein in J774 macrophage membranes after cAMP withdrawal; format: cell-based; parameters: J774 macrophages were used to assess relative ABCA1 protein levels in the presence and absence of synthetic peptides; endogenous in cells; host or cells: J774 macrophages treated with a cAMP analog (CPT-cAMP or 8-bromo-cAMP); conditions: concentration dependence studies, J774 macrophages

lowest concentration that prevented ABCA1 degradation (ABCA1 [4]) [µg/mL]	concentration at which cholesterol efflux reached maximal levels (ABCA1 [2]; cAMP-treated J774 cells) [µg/mL]	Molecule	ABCA1 stabilization (result in words) (ABCA1 [1])	ABCA1-dependent cholesterol efflux (result in words) (ABCA1 [2])	lipid binding affinity (surface balance technique), result in words [3]	Monolayer exclusion pressure [3] [dynes/cm]	cholesterol efflux relative to that obtained with full-length apoA-I (ABCA1 [2]; 75 μg/ml, cAMP-treated macrophages) [%]	ABCA1 stabilization (result in words) (ABCA1 [1]; listed as Helix 10)	ABCA1-dependent cholesterol efflux (result in words) (ABCA1 [2]; listed as Helix 10)	ABCA1-dependent cholesterol efflux (result in words) (ABCA1 [2]; listed as helix 10)
		CC(=O)N1CCC[C@H]1C(=O)N[C@H](C(=O)N[C@@H](CC(C)C)C(=O)N[C@@H](CCC(=O)O)C(=O)N[C@@H](CO)C(=O)N[C@@H](Cc1ccccc1)C(=O)N[C@@H](CCCCN)C(=O)N[C@H](C(=O)N[C@@H](CO)C(=O)N[C@@H](Cc1ccccc1)C(=O)N[C@@H](CC(C)C)C(=O)N[C@@H](CO)C(=O)N[C@@H](C)C(=O)N[C@@H](CC(C)C)C(=O)N[C@@H](CCC(=O)O)C(=O)N[C@@H](CCC(=O)O)C(=O)N[C@@H](Cc1ccc(O)cc1)C(=O)N[C@H](C(=O)N[C@@H](CCCCN)C(=O)N[C@@H](CCCCN)C(=O)N[C@@H](CC(C)C)C(=O)N[C@@H](CC(N)=O)C(=O)N1CCC[C@H]1C(=O)N[C@@H](C)C(=O)N[C@@H](CC(C)C)C(=O)N[C@@H](CCC(=O)O)C(=O)N[C@@H](CC(=O)O)C(=O)N[C@@H](CC(C)C)C(=O)N[C@@H](CCCNC(=N)N)C(=O)N[C@@H](CCC(N)=O)C(=O)NCC(=O)N[C@@H](CC(C)C)C(=O)N[C@@H](CC(C)C)C(N)=O)[C@@H](C)O)C(C)C)C(C)C [Helical peptide 10/9] (Ac-PVLESFKVSFLSALEEYTKKLNPALEDLRQGLL-NH2)	failed to prevent ABCA1 degradation	failed to stimulate ABCA1-dependent cholesterol efflux						
		CC(=O)N[C@@H](CC(C)C)C(=O)N[C@@H](CCCCN)C(=O)N[C@@H](CC(C)C)C(=O)N[C@@H](CC(C)C)C(=O)N[C@@H](CC(=O)O)C(=O)N[C@@H](CC(N)=O)C(=O)N[C@@H](Cc1c[nH]c2ccccc12)C(=O)N[C@@H](CC(=O)O)C(=O)N[C@@H](CO)C(=O)N[C@H](C(=O)N[C@H](C(=O)N[C@@H](CO)C(=O)N[C@H](C(=O)N[C@@H](Cc1ccccc1)C(=O)N[C@@H](CO)C(=O)N[C@@H](CCCCN)C(=O)N[C@@H](CC(C)C)C(=O)N[C@@H](CCCNC(=N)N)C(=O)N[C@@H](CCC(=O)O)C(=O)N[C@@H](CCC(N)=O)C(=O)N[C@@H](CC(C)C)C(=O)NCC(N)=O)[C@@H](C)O)[C@@H](C)O)C(C)C [Helical peptide 1] (Ac-LKLLDNWDSVTSTFSKLREQLG-NH2)	failed to prevent ABCA1 degradation	failed to stimulate ABCA1-dependent cholesterol efflux	identical	30	15			
~10	10	full-length apoA-I: full-length recombinant His-tagged apolipoprotein A-I from a bacterial expression system, positive control [reference compound]		increased dramatically upon the up-regulation of the ABCA1 transporter	identical					
		CC(=O)N1CCC[C@H]1C(=O)N[C@@H](C)C(=O)N[C@@H](CC(C)C)C(=O)N[C@@H](CCC(=O)O)C(=O)N[C@@H](CC(=O)O)C(=O)N[C@@H](CC(C)C)C(=O)N[C@@H](CCCNC(=N)N)C(=O)N[C@@H](CCC(N)=O)C(=O)NCC(=O)N[C@@H](CC(C)C)C(=O)N[C@@H](CC(C)C)C(N)=O [Helical peptide 9] (Ac-PALEDLRQGLL-NH2)	failed to prevent ABCA1 degradation	failed to stimulate ABCA1-dependent cholesterol efflux						
		CC(=O)N1CCC[C@H]1C(=O)N[C@H](C(=O)N[C@@H](CC(C)C)C(=O)N[C@@H](CCC(=O)O)C(=O)N[C@@H](CO)C(=O)N[C@@H](Cc1ccccc1)C(=O)N[C@@H](CCCCN)C(=O)N[C@H](C(=O)N[C@@H](CO)C(=O)N[C@@H](Cc1ccccc1)C(=O)N[C@@H](CC(C)C)C(=O)N[C@@H](CO)C(=O)N[C@@H](C)C(=O)N[C@@H](CC(C)C)C(=O)N[C@@H](CCC(=O)O)C(=O)N[C@@H](CCC(=O)O)C(=O)N[C@@H](Cc1ccc(O)cc1)C(=O)N[C@H](C(=O)N[C@@H](CCCCN)C(=O)N[C@@H](CCCCN)C(=O)N[C@@H](CC(C)C)C(=O)N[C@@H](CC(N)=O)C(N)=O)[C@@H](C)O)C(C)C)C(C)C [Helical peptide 10] (Ac-PVLESFKVSFLSALEEYTKKLN-NH2)	failed to prevent ABCA1 degradation			28		nor does it stabilize ABCA1	does not mediate ABCA1-dependent cholesterol efflux	poor mediator of cellular cholesterol efflux
